Blank lines part the entries; values can stand above or below the compound they belong to. Residues, ends and D or L forms follow the SMILES beside them.
What was measured:
[1] = biological target: Toll-like receptor 4/MD-2 (Homo sapiens, UniProt O00206+Q9Y6Y9); experiment: Binding affinity to recombinant human 10His-tagged TLR4 (24 to 631 residues)/recombinant human 10His-tagged MD2 (17 to 160 residues) after 5 mins by SPR assay; type: protein-complex assay
[2] = biological target: T1, High mobility group protein B1 (Homo sapiens, UniProt P09429); experiment: Binding affinity to recombinant HMGB1 B box region (90 to 175 residues) (unknown origin) expressed Escherichia coli after 5 mins by fluorescence-based assay
T1 sequence (P09429 whole entry): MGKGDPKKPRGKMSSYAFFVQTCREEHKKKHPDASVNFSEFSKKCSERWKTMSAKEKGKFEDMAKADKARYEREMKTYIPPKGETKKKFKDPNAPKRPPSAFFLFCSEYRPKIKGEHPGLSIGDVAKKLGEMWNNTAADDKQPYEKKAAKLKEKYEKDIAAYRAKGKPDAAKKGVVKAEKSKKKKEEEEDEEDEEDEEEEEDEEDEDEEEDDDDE

[3] = biological target: T1, High mobility group protein B1; experiment: Binding affinity to recombinant HMGB1 A box region (1 to 89 residues) (unknown origin) expressed Escherichia coli after 5 mins by fluorescence-based assay
[4] = biological target: T1, High mobility group protein B1; experiment: Binding affinity to N-terminal 6His-tagged HMGB1 AI region (1 to 87 residues) (unknown origin) expressed in Escherichia coli JM109 by SPR assay
[5] = biological target: T1, High mobility group protein B1; experiment: Binding affinity to N-terminal 6His-tagged HMGB1 Bj region (88 to 181 residues) (unknown origin) expressed in Escherichia coli JM109 by SPR assay
[6] = biological target: T1, High mobility group protein B1; experiment: Binding affinity to recombinant HMGB1 box B (unknown origin)
[7] = biological target: T1, High mobility group protein B1; experiment: Binding affinity to recombinant HMGB1 box A (unknown origin)

Sequence of Toll-like receptor 4/MD-2 (O00206 whole entry, the tested form may be a part): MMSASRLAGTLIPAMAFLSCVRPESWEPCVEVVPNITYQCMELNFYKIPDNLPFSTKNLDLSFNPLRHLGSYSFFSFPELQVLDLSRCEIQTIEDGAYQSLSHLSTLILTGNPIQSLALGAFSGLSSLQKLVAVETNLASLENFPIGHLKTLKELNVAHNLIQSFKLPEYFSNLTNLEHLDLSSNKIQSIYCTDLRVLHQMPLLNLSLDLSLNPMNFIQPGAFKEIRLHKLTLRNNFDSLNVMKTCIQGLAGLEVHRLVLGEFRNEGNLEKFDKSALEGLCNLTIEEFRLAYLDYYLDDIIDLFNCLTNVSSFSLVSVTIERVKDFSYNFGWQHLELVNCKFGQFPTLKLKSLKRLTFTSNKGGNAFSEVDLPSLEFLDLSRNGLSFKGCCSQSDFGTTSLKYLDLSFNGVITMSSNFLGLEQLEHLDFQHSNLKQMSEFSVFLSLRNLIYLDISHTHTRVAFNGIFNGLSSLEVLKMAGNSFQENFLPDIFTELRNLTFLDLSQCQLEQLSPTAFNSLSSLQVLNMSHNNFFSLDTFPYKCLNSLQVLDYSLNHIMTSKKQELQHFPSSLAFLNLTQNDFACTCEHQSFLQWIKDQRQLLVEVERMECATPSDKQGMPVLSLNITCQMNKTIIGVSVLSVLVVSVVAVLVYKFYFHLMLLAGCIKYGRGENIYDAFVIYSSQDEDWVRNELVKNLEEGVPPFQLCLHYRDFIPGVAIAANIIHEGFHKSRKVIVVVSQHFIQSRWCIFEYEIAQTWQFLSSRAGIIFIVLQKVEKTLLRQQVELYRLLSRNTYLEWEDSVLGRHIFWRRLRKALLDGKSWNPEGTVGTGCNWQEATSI
Sequence of Toll-like receptor 4/MD-2 (Q9Y6Y9 whole entry, the tested form may be a part): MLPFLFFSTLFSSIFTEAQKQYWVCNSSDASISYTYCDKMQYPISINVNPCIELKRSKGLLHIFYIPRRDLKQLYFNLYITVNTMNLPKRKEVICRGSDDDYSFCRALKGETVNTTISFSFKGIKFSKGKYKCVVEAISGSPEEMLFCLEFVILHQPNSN

Kd [1]: 5.95 µM
Structure (SMILES): CSCC[C@H](NC(=O)[C@H](C)N)C(=O)N[C@@H](C)C(=O)N[C@@H](CC(C)C)C(=O)N[C@@H](CC(=O)O)C(=O)N[C@@H](CS)C(=O)N[C@@H](Cc1ccccc1)C(=O)N[C@@H](CCCNC(=N)N)C(=O)N[C@@H](Cc1c[nH]c2ccccc12)C(=O)NCC(=O)N[C@@H](Cc1c[nH]c2ccccc12)C(=O)N[C@@H](CCCNC(=N)N)C(=O)N[C@@H](CCSC)C(=O)N[C@@H](Cc1c[nH]c2ccccc12)C(=O)N[C@@H](CS)C(=O)N[C@@H](CO)C(=O)N[C@@H](CO)C(=O)NCC(=O)O (H-AMALDCFRWGWRMWCSSG-OH)

Kd [2]: 87 µM
Kd [3]: 103 µM
Structure (SMILES): CC1(C)[C@@H](O[C@H]2O[C@H](C(=O)O)[C@@H](O)[C@H](O)[C@H]2O[C@@H]2O[C@H](C(=O)O)[C@@H](O)[C@H](O)[C@H]2O)CC[C@]2(C)[C@H]3C(=O)C=C4[C@@H]5C[C@@](C)(C(=O)O)CC[C@]5(C)CC[C@@]4(C)[C@]3(C)CC[C@@H]12 [GLYCYRRHIZIN]

Kd [4]: 0.5 µM
Kd [5]: 0.024 µM
Structure (SMILES): CN(Cc1cnc2nc(N)nc(N)c2n1)c1ccc(C(=O)N[C@@H](CCC(=O)O)C(=O)O)cc1 [METHOTREXATE]

Structure (SMILES): O=C(O)c1ccccc1O [SALICYLIC ACID]
Kd [6]: 1 to 10 µM
Kd [7]: 1 to 10 µM

Reference: ChEMBL document CHEMBL4118100, “High Mobility Group Box-1 (HMGb1): Current Wisdom and Advancement as a Potential Drug Target” (J Med Chem, 2018)
